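These data come from cells grown in 96-well plates and exposed to compound for 48 hours at five concentrations. GI50 is the concentration that inhibits growth by half. TGI is the concentration that stops growth completely.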
Tests used:
Experiment in all cases: NCI-60 cell line screen, 48 h
[1] = test system: SK-MEL-2 melanoma
[2] = test system: MOLT-4 leukemia
[3] = test system: PC-3 prostate
[4] = test system: SNB-75 CNS
[5] = test system: UO-31 renal
[6] = test system: OVCAR-5 ovarian
[7] = test system: NCI-H522 lung
[8] = test system: SR leukemia
[9] = test system: MCF7 breast
[10] = test system: NCI-H460 lung

Row | SMILES | GI50 [1] | TGI [1] | GI50 [2] | TGI [2] | GI50 [3] | TGI [3] | GI50 [4] | TGI [4] | GI50 [5] | TGI [5] | GI50 [6] | TGI [6] | GI50 [7] | TGI [7] | GI50 [8] | TGI [8] | GI50 [9] | TGI [9] | GI50 [10] | TGI [10]
1 | CC(=O)OCC(=O)C1(O)C(C)CC2C3C=C(C)C4=Cc5c(cnn5-c5ccccc5)CC4(C)C3C(O)CC21C (configuration not stated) | 1.66 µM | 3.85 µM | 0.753 µM | > 22 µM | 1.69 µM | 5.83 µM | 1.89 µM | 5.92 µM | 2.47 µM | 8.43 µM | 1.1 µM | 3.92 µM | 1.97 µM | 5.24 µM | 1.63 µM | > 27.2 µM | 1.47 µM | 5.22 µM | 1.43 µM | 3.24 µM
2 | CCN1C(=O)N(CC)C2C1NN=c1s/c(=C\c3ccccc3)c(=O)n12 (configuration not stated) | – | > 100 µM | 0.42 µM | > 100 µM | 0.157 µM | > 100 µM | 0.0487 µM | – | 0.49 µM | > 100 µM | 0.498 µM | > 100 µM | 0.11 µM | – | 0.0531 µM | > 49.2 µM | 0.0463 µM | > 100 µM | 0.21 µM | > 100 µM
3 | Cc1sc(/N=C2/NC(=O)CS2)nc1-c1nc(/N=C2/NC(=O)CS2)sc1C | > 50 µM | > 50 µM | 19.9 µM | > 50 µM | 16.8 µM | > 50 µM | > 50 µM | > 50 µM | > 50 µM | > 50 µM | > 50 µM | > 50 µM | > 50 µM | > 50 µM | 24.9 µM | > 50 µM | 19.7 µM | > 50 µM | 23.4 µM | > 50 µM
4 | CS[C@@]1(C(=O)Nc2ccc3[nH]nc(-c4ccc(OC(C)C)nc4)c3c2)CCN(CC(=O)N2CC=C(c3ccc(-c4ncn(C)n4)cc3)CC2)C1 | 0.0571 µM | 1.11 µM | 5.26 µM | > 100 µM | 6.56 µM | > 100 µM | > 100 µM | > 100 µM | 1.01 µM | > 100 µM | 0.131 µM | > 100 µM | > 51.2 µM | > 100 µM | 4.35 µM | 63.6 µM | 13.9 µM | > 100 µM | > 100 µM | > 100 µM
5 | CC(=O)N[C@@H](Cc1ccc(OP(=O)(O)O)cc1)C(=O)N[C@H]1CCC(=O)N2CCC[C@@H](C(=O)NCc3ccc(O)cc3)N2C1=O | > 25 µM | > 25 µM | > 25 µM | > 25 µM | > 25 µM | > 25 µM | > 25 µM | > 25 µM | 24.2 µM | > 25 µM | > 25 µM | > 25 µM | > 25 µM | > 25 µM | > 25 µM | > 25 µM | > 25 µM | > 25 µM | > 25 µM | > 25 µM
6 | CCOc1cc(/C=N\NC(=O)N/N=C/c2ccc(O)c(OCC)c2)ccc1O | 1.55 µM | > 100 µM | 3.41 µM | > 76.8 µM | 3.51 µM | > 100 µM | 2.76 µM | > 100 µM | 8.47 µM | > 100 µM | 59.3 µM | > 100 µM | 0.281 µM | 1.49 µM | 0.354 µM | > 39.1 µM | 0.815 µM | > 100 µM | 2.88 µM | > 67.7 µM
7 | O=C(Nc1ccc(S(=O)(=O)NC2CCCCCC2)cc1)C(c1ccccc1)S(=O)(=O)c1ccc(F)cc1 (configuration not stated) | 0.449 µM | 2.08 µM | 0.432 µM | > 100 µM | 0.295 µM | 2.19 µM | 0.508 µM | 2.17 µM | 0.202 µM | 3.52 µM | 0.374 µM | 3.15 µM | 0.318 µM | 2.94 µM | 0.41 µM | 4.42 µM | 0.124 µM | 1.61 µM | 0.0367 µM | 1.1 µM
8 | CCc1ccccc1-n1c(N)c(C#N)c(-c2ccc(OC)c(OC)c2)c(C#N)c1=O | 25.8 µM | 80.6 µM | > 100 µM | > 100 µM | 15.4 µM | 32.8 µM | 17.8 µM | 32.1 µM | 25.5 µM | > 100 µM | 20.5 µM | 55.3 µM | 19 µM | 44.8 µM | 15 µM | > 100 µM | 16.9 µM | 33.5 µM | 19.3 µM | 38.5 µM
9 | C[C@@H](Oc1cc(-c2cnn(C3CC4(CCCNC4)C3)c2)cnc1N)c1c(Cl)ccc(F)c1Cl (some centres not stated) | 1.69 µM | 3.24 µM | 1.22 µM | 5.46 µM | 1.25 µM | 6.83 µM | 1.64 µM | 3.96 µM | 1.76 µM | 3.9 µM | 1.29 µM | 4.93 µM | 1.35 µM | 2.79 µM | 0.0827 µM | 1.41 µM | 0.363 µM | 1.85 µM | 0.826 µM | 2.53 µM
10 | CC[C@H](C)[C@H](NC(=O)C12CC(NC(C)=O)(C1)C2)C(=O)N(C)[C@H](C[C@@H](OC(C)=O)c1nc(C(=O)N[C@@H](Cc2ccccc2)C[C@H](C)C(=O)OC)cs1)C(C)C | 0.108 µM | > 16.7 µM | 0.748 µM | > 16.7 µM | 0.194 µM | > 16.7 µM | 0.123 µM | > 16.7 µM | > 8.2 µM | > 16.7 µM | > 3.89 µM | > 16.7 µM | 0.0551 µM | 0.45 µM | 0.0336 µM | > 16.7 µM | 0.0489 µM | > 16.7 µM | 0.32 µM | > 16.7 µM
11 | ClC1=C(Cl)C(Cl)=C(Cl)C1=Cc1ccc(Cl)cc1 | 2.13 µM | 4.35 µM | 0.356 µM | 2.96 µM | 0.876 µM | 6.5 µM | 1.44 µM | 3.26 µM | 0.539 µM | 2.52 µM | 0.705 µM | 2.05 µM | 0.23 µM | 0.655 µM | 0.253 µM | 1.72 µM | 0.386 µM | 1.79 µM | 0.726 µM | 2.18 µM
12 | C=C1C(=O)OC2CC3(C)OC3C3OC3C3=CC(OC3=O)C12 (configuration not stated) | 15.4 µM | 36.4 µM | 3.25 µM | 9.75 µM | 15.9 µM | 32.9 µM | 14.5 µM | 38.6 µM | 2.84 µM | 7.54 µM | 9.05 µM | 25.7 µM | 0.299 µM | 0.904 µM | 2.82 µM | 7.81 µM | 6.05 µM | 27.6 µM | 19.9 µM | 41.3 µM
13 | CS(=O)(=O)c1nc(Cl)c(Cl)c(C#N)c1Cl | – | 14.5 µM | – | 6.02 µM | – | 11.6 µM | – | 26.9 µM | – | 4.31 µM | – | 9.41 µM | – | 1.28 µM | – | > 36.4 µM | – | 13.2 µM | – | 32.4 µM
14 | CCOC(=O)C(Cc1ccc(OC)cc1)C(=O)OCC | 2.64 µM | 8.66 µM | 3.2 µM | 11 µM | 5.08 µM | 32.4 µM | 2.72 µM | 9.35 µM | 5.63 µM | 19.7 µM | 11.4 µM | 24.2 µM | 2.53 µM | 8.73 µM | 1.88 µM | 5.38 µM | 3.03 µM | 13.8 µM | 4.12 µM | 15.1 µM
15 | N#Cc1c(Oc2ccc(F)c(NC(=O)Cc3cccc(C(F)(F)F)c3)c2)ccc2nc(NC(=O)C3CC3)sc12 | 0.108 µM | 0.83 µM | 0.673 µM | > 100 µM | 1.56 µM | > 100 µM | 1.1 µM | > 100 µM | 0.553 µM | > 24.2 µM | 0.412 µM | > 100 µM | 0.942 µM | > 25 µM | 0.672 µM | > 100 µM | 1.11 µM | > 100 µM | 0.378 µM | > 100 µM
16 | Cc1cccnc1CNC1CC(NCc2ncccc2C)CC(NCc2ncccc2C)C1 (configuration not stated) | 3.9 µM | > 100 µM | 2.72 µM | 5.38 µM | 2.3 µM | 4.52 µM | 2.21 µM | 4.32 µM | 4.85 µM | 22.5 µM | 1.92 µM | 5.23 µM | 2.69 µM | 12.2 µM | 0.406 µM | 2.09 µM | 2.39 µM | 5.21 µM | 2.41 µM | 6.03 µM
17 | CCCCCCC1N=C(N)N=C(N)N1c1ccc(Cl)cc1 (configuration not stated) | 11.7 µM | 26.3 µM | 7.03 µM | 32.5 µM | 2.9 µM | 52.8 µM | 6.31 µM | 33.5 µM | 57.1 µM | > 100 µM | 10.7 µM | > 100 µM | 6.53 µM | 22.2 µM | 3 µM | 11.9 µM | 11.4 µM | 25.6 µM | 4.69 µM | 18.5 µM

— PubChem BioAssay (NCI)
